This assay concerns the target T1, hT2R54 (Homo sapiens, UniProt P59534).
T1 construct: expressed in transfected cells; it overexpresses a promiscuous G protein
T1 sequence (P59534 1-338): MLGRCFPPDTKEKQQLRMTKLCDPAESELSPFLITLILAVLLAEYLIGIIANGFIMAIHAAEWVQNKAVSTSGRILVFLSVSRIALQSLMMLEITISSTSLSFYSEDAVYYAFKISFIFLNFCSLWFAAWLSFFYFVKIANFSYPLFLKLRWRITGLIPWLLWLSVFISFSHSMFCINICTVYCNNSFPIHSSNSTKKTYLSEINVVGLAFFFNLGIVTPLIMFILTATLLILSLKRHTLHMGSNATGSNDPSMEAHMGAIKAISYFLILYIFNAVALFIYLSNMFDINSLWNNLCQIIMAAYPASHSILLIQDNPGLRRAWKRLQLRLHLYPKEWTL
Nature of the assay: Cell-based assay for measuring hT2R54 inhibition (FLIPR calcium, Fluo4AM, acetaminophen as bitter agonist). The conditions noted are these: read-out: hT2R54 IC50. The procedure, abridged: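 The readout was FLIPR calcium (Fluo4AM, 10 s baseline, 3 min post-addition) in cells stably carrying hT2R54 plus a promiscuous G protein, with host cells lacking hT2R54 as counter-control. Acetaminophen concentration series were tested with and without set test-compound levels. Half-maximal block of the agonist response gave the EC50/IC50.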

Setting [1] is: Table 2, cells stably expressing hT2R54 and a promiscuous G protein.
The mark [2] stands for this setting: Table 3, cells stably expressing hT2R54 and a promiscuous G protein.
Setting [3] is: Table 4, cells stably expressing hT2R54 and a promiscuous G protein.
Setting [4] is: Table 5, cells stably expressing hT2R54 and a promiscuous G protein.

Like-named read-outs stand apart in the source and are kept apart here. Where only a bound is given, the exact number is not on record here.

For the compound `COc1cc2c(cc1NC(=O)CN1CCN(C(=O)c3c[nH]c(C)n3)CC1)OCO2` [compound 392], the half-inhibitory concentration (IC50) under setting [1] was 1300 nM.
As for `COc1cc2c(cc1NC(=O)CN1CCN(C(=O)c3ncc[nH]3)CC1)OCO2` [compound 393], the 50% inhibitory concentration (IC50) under setting [1] worked out at 200 nM.
Regarding `COc1cc2c(cc1NC(=O)CN1CCN(C(=O)c3cc(C)c(C)o3)CC1)OCO2` [compound 395], under setting [1], the 50% inhibitory concentration (IC50) was found to be 100 nM.
Still for that read-out and setting: then `COCc1ccc(C(=O)N2CCN(CC(=O)Nc3cc4c(cc3OC)OCO4)CC2)o1` [compound 396], with 100 nM.
With `COCc1cc(C(=O)N2CCN(CC(=O)Nc3cc4c(cc3OC)OCO4)CC2)no1` [compound 397], under setting [1], the IC50 stood at 770 nM.
The same measure, in the same setting: the value for `COc1cc2c(cc1NC(=O)CN1CCN(C(=O)c3ccc(CO)o3)CC1)OCO2` [compound 398] was 630 nM; that for `COc1cc2c(cc1NC(=O)CN1CCN(C(=O)c3ncn[nH]3)CC1)OCO2` [compound 399] was 1400 nM.
`COCc1cc(C(=O)N2CCN(CC(=O)Nc3cc4c(cc3OC)OCO4)CC2)no1` [compound 400]: the IC50 under setting [1] came to 300 nM.
`COc1cc2c(cc1NC(=O)CN1CCN(C(=O)Cc3ccoc3)CC1)OCO2` [compound 401]: the IC50 under setting [1] came out at 130 nM.
Still for that read-out and setting: then `COc1cc2c(cc1NC(=O)CN1CCN(C(=O)[C@H]3CCC(=O)O3)CC1)OCO2` [compound 402], with 1100 nM; and `COc1cc2c(cc1NC(=O)C(C)N1CCN(C(C)=O)CC1)OCO2` (centres unmarked) [compound 403], with 1400 nM.
On the same count and under the same terms, then `COc1cc2c(cc1NC(=O)CN1CCN(C(=O)C3CCCC3)CC1)OCO2` [compound 404], with 300 nM.
Still for that read-out and setting: the value for `COc1cc2c(cc1NC(=O)CN1CCN(C(=O)C3CCCCC3C)CC1)OCO2` (centres unmarked) [compound 405] was 1000 nM.
In the case of `COc1cc2c(cc1NC(=O)CN1CCN(C(=O)C3CCOC3)CC1)OCO2` (centres unmarked) [compound 406], under setting [1], the IC50 is 1800 nM.
On to `COc1cc2c(cc1NC(=O)CN1CCN(C(=O)C3CCN(C)C3)CC1)OCO2` (centres unmarked) [compound 407], for which the IC50 under setting [1] is more than 10000 nM.
With `COc1cc2c(cc1NC(=O)CN1CCN(C(=O)CC3CCCO3)CC1)OCO2` (centres unmarked) [compound 408], the concentration for half-maximal inhibition (IC50) under setting [1] was determined as 880 nM.
In the case of `COc1cc2c(cc1NC(=O)CN1CCN(C(=O)CC3CCCCO3)CC1)OCO2` (centres unmarked) [compound 409], the IC50 under setting [1] turned out to be 500 nM.
For the compound `COc1cc2c(cc1NC(=O)CN1CCN(C(C)=O)CC1)CCC2` [compound 410], the concentration for half-maximal inhibition (IC50) under setting [1] worked out at 1140 nM.
Regarding `CC(=O)c1cc2c(cc1NC(=O)C(C)N1CCN(C(=O)[C@@H]3CCCO3)CC1)OCCO2` (some centres unmarked) [compound 411], under setting [1], the IC50 amounted to 170 nM.
Take `CC(=O)c1cc2c(cc1NC(=O)C(C)N1CCN(C(=O)[C@H]3CCCO3)CC1)OCCO2` (some centres unmarked) [compound 412]: the concentration for half-maximal inhibition (IC50) under setting [1] was determined as 170 nM.
The same measure, in the same setting: then `COCc1ccc(C(=O)N2CCN(C(C)C(=O)Nc3cc4c(cc3C(C)=O)OCCO4)CC2)cc1` (centres unmarked) [compound 413], with 190 nM.
With `CCc1cc2c(cc1NC(=O)CN1CCN(C(=O)C3CCCO3)CC1)OCO2` (centres unmarked) [compound 414], under setting [1], the concentration for half-maximal inhibition (IC50) was 7600 nM.
As for `CC(=O)c1cc2c(cc1NC(=O)CN1CCN(CC3CCCO3)CC1)OCO2` (centres unmarked) [compound 415], the IC50 under setting [2] worked out at 1300 nM.
Consider `COc1cc2c(cc1NC(=O)CN1CCN(CC3CCCO3)CC1)OCO2` (centres unmarked) [compound 416], for which the IC50 under setting [2] was found to be 4000 nM.
Consider `CC(=O)c1cc2c(cc1NC(=O)CN1CCCCC1)OCO2` [compound 417], for which the IC50 under setting [3] was found to be 439 nM.
With `CC(=O)c1cc2c(cc1NC(=O)CN1CCC(C)CC1)OCO2` [compound 418], under setting [3], the IC50 worked out at 183 nM.
Take `CCOC(=O)[C@H]1CCCCN1CC(=O)Nc1cc2c(cc1C(C)=O)OCO2` [compound 419]: under setting [3], the 50% inhibitory concentration (IC50) was found to be 135 nM.
As for `CCOC(=O)[C@H]1CCCN1CC(=O)Nc1cc2c(cc1C(C)=O)OCO2` [compound 420], the half-inhibitory concentration (IC50) under setting [3] is 100 nM.
In the case of `CC(=O)c1cc2c(cc1NC(=O)CN1CCC(=O)CC1)OCO2` [compound 421], the IC50 under setting [3] came to 187 nM.
On to `CC(=O)c1cc2c(cc1NC(=O)CN1CCSCC1)OCO2` [compound 422], for which the concentration for half-maximal inhibition (IC50) under setting [3] was 50 nM.
As to `CC(=O)c1cc2c(cc1NC(=O)CN1CCOc3ccccc31)OCO2` [compound 423], the IC50 under setting [3] turned out to be 1000 nM.
Consider `CC(=O)c1cc2c(cc1NC(=O)CN1CCC(O)C1)OCO2` (centres unmarked) [compound 424], for which the half-maximal inhibitory concentration (IC50) under setting [3] turned out to be 1590 nM.
Regarding `COCCCN(C)CC(=O)Nc1cc2c(cc1C(C)=O)OCO2` [compound 425], under setting [3], the 50% inhibitory concentration (IC50) turned out to be 643 nM.
On the same count and under the same terms, then `COCCN(C)CC(=O)Nc1cc2c(cc1C(C)=O)OCO2` [compound 426], with 1150 nM.
Still for that read-out and setting: then `CCN(CCCOC)CC(=O)Nc1cc2c(cc1C(C)=O)OCO2` [compound 427], with 373 nM; and `CCOC(=O)C1CN(C(=O)OC(C)(C)C)CCN1CC(=O)Nc1cc2c(cc1C(C)=O)OCO2` (centres unmarked) [compound 428], with 650 nM.
As to `CC(=O)c1cc2c(cc1NC(=O)CN1CCCC(NC(=O)OC(C)(C)C)C1)OCO2` (centres unmarked) [compound 429], the concentration for half-maximal inhibition (IC50) under setting [3] stood at 1280 nM.
On to `CC(=O)c1cc2c(cc1NC(=O)CN1CCC(NC(=O)OC(C)(C)C)CC1)OCO2` [compound 430], for which the IC50 under setting [3] came out at 162 nM.
On the same count and under the same terms, the value for `CC(=O)c1cc2c(cc1NC(=O)C(C)N1CCN(C(=O)OC(C)(C)C)CC1)OCO2` (centres unmarked) [compound 431] was 900 nM; that for `CC(=O)c1cc2c(cc1NC(=O)CCN1CCOCC1)OCO2` [compound 432] was 1920 nM.
Regarding `CC(=O)c1cc2c(cc1NC(=O)C(C)N1CCC(O)CC1)OCCO2` (centres unmarked) [compound 433], the IC50 under setting [3] was 220 nM.
Still for that read-out and setting: then `COC(=O)c1cc2c(cc1NC(=O)CN1CCC(O)CC1)OCO2` [compound 434], with 248 nM; and `COC(=O)c1cc2c(cc1NC(=O)CN1CCC(OC)CC1)OCO2` [compound 435], with 419 nM; and `COC(=O)c1cc2c(cc1NC(=O)CN1CCOCC1)OCO2` [compound 436], with 287 nM.
With `COC(=O)c1cc2c(cc1NC(=O)CN1CCN(C(=O)OC(C)(C)C)CC1)OCO2` [compound 437], under setting [3], the concentration for half-maximal inhibition (IC50) is approximately 1000 nM.
The same measure, in the same setting: the value for `COC(=O)c1cc2c(cc1NC(=O)CN1CCOCC1)OCCO2` [compound 438] was 198 nM; that for `COC(=O)c1cc2c(cc1NC(=O)CN1CCOCC1)CCCC2` [compound 439] was approximately 2000 nM; that for `COc1cc2c(cc1NC(=O)CN1CCCCC1)OCO2` [compound 440] was 1820 nM.
For the compound `COc1cc2c(cc1NC(=O)C(C)N1CCOCC1)OCO2` (centres unmarked) [compound 441], the IC50 under setting [3] stood at 1000 nM.
On the same count and under the same terms, the value for `COc1cc2c(cc1NC(=O)CN1CCSCC1)OCO2` [compound 442] was 200 nM; that for `COc1cc2c(cc1NC(=O)CN1CC(C)OC(C)C1)OCO2` (centres unmarked) [compound 443] was 322 nM; that for `CCOC(=O)C1CN(CC(=O)Nc2cc3c(cc2OC)OCO3)CCO1` (centres unmarked) [compound 444] was 505 nM.
As for `CCOC(=O)C1COCCN1CC(=O)Nc1cc2c(cc1OC)OCO2` (centres unmarked) [compound 445], the IC50 under setting [3] turned out to be 526 nM.
On the same count and under the same terms, then `COc1cc2c(cc1NC(=O)C(C)N1CCN(C(=O)OC(C)(C)C)CC1)OCO2` (centres unmarked) [compound 446], with 190 nM; and `CCc1cc2c(cc1NC(=O)CN1CCOCC1)OCO2` [compound 447], with more than 10000 nM.
In the case of `CCc1cc2c(cc1NC(=O)CN1CCN(C(=O)OC(C)(C)C)CC1)OCO2` [compound 448], the IC50 under setting [3] was 700 nM.
Turning to `COc1cc2c(cc1NC(=O)CN1CCOCC1)CCC2` [compound 449], the IC50 under setting [3] was 804 nM.
For `CCNC(=O)C1CCCN(CC(=O)Nc2cc3c(cc2OC)OCO3)C1` (centres unmarked) [compound 450], under setting [4], the IC50 stood at 668 nM.
`COc1cc2c(cc1NC(=O)CN(C)CCC(=O)NCc1ccccc1)OCO2` [compound 451]: the IC50 under setting [4] was found to be 406 nM.
On to `COc1cc2c(cc1NC(=O)CN1CCCC(C(=O)NCc3ccccc3)C1)OCO2` (centres unmarked) [compound 452], for which the IC50 under setting [4] turned out to be 603 nM.
Same read-out and setting: then `CNC(=O)C1CCCN(CC(=O)Nc2cc3c(cc2OC)OCO3)C1` (centres unmarked) [compound 453], with 969 nM.
As for `CC(=O)c1cc2c(cc1NC(=O)CC1CCN(C(=O)c3ccncc3)CC1)OCO2` [compound 454], the half-maximal inhibitory concentration (IC50) (Table 8) came to 300 nM.
For the compound `CC(=O)c1cc2c(cc1NC(=O)CC1CCCN(C(=O)c3cc(O)cc(O)c3)C1)OCO2` (centres unmarked) [compound 455], the IC50 (Table 8) was 6000 nM.
Regarding `CC(=O)c1cc2c(cc1NC(=O)CC1CCCN(C(=O)c3ccc(O)c(O)c3)C1)OCO2` (centres unmarked) [compound 456], the IC50 (Table 8) stood at 1300 nM.
Regarding `CC(=O)c1cc2c(cc1NC(=O)CC1CCCN(C(=O)c3ccc(O)cc3O)C1)OCO2` (centres unmarked) [compound 457], the IC50 (Table 8) was determined as 140 nM.
Turning to `CC(=O)c1cc2c(cc1NC(=O)CC1CCCN(C(=O)c3cc(O)ccc3O)C1)OCO2` (centres unmarked) [compound 458], under “Table 8”, the IC50 amounted to 160 nM.
Consider `CC(=O)c1cc2c(cc1NC(=O)CC1CCN(C(=O)c3cnn[nH]3)CC1)OCO2` [compound 459], for which the IC50 (Table 8) is 95 nM.
Regarding `CC(=O)c1cc2c(cc1NC(=O)CC1CCN(C(=O)c3ncn[nH]3)CC1)OCO2` [compound 460], for the setting “Table 8”, the IC50 was 300 nM.
Consider `CC(=O)c1cc2c(cc1NC(=O)CC1CCN(C(=O)c3cc[nH]n3)CC1)OCO2` [compound 461], for which the IC50 (Table 8) worked out at 150 nM.
On to `CC(=O)c1cc2c(cc1NC(=O)CC1CCN(C(=O)c3ncc[nH]3)CC1)OCO2` [compound 462], for which the half-inhibitory concentration (IC50) (Table 8) turned out to be 30 nM.
The same measure, in the same setting: then `CC(=O)c1cc2c(cc1NC(=O)CC1CCN(C(=O)c3c[nH]c(C)n3)CC1)OCO2` [compound 463], with 400 nM.

The values above are taken from patent US12295396B2, “Antagonists of T2R54 and compositions and uses thereof” (Firmenich Incorporated, priority 2018, dated 2025).
